Assay results reported in US9682067B2, “Methods of improving cognitive function” (priority 2010, dated 2017).
Where two headings read alike, the source gives them in different places.

Key:
GluR6 receptor = test: Complex olfactory discrimination learning in 4-arm maze after injection into the brain ventricles; type: in vivo; details: rats; 500 nmol into the brain ventricles, evaluation 10 min after daily injection; saline injected rats 8 days; p<0.001
Protocol: Olfactory discrimination protocol was performed in a 4-arm radial maze, with odors that are frequently used in the food industry (FIG. 1A). FIG. 1A is a schematic description of the 4-arm maze: an electronic ‘start’ command opens randomly two out of eight valves (V), releasing a positive-cue odor (P) into one of the arms and a negative-cue odor (N) into another. Eight seconds later, the two corresponding guillotine doors (D) are lifted to allow the rat to enter the selected arms. Upon reaching the far end of an arm (90 cm long), the rat body interrupts an infrared beam (I, arrow) and a drop of drinking water is released from a water hose (W) into a small drinking well (for a trained rat—only if the arm contains the positive-cue odor, for pseudo-trained rat—randomly). A trial ends when the rat interrupts a beam, or in 10 seconds, if no beam was interrupted. A fan is operated for 15 seconds between trials, to remove odors.
Olfactory training included 20 trials per day. […] A pseudo-trained group of age-matched rats was exposed to the same protocol of training, but with random water rewarding. An age-matched naive group of rats was water-deprived, without exposure to training. A day following memorization of a pair of odors by the rats in the trained group, both trained and pseudo trained groups were trained with a new pair of odors. […]

kainate receptors = test: Post-burst AHP amplitude in pyramidal neurons of brain slices after brief kainate exposure; type: cell-based, rat; details: for averaged AHP amplitude: after ten minutes long exposure to kainate, p<0.05
Protocol: brain slices of the pirofm cortex hippocampus are prepared and recordings were obtained from pyramidal neurons, with sharp electrodes for current clamp studies of AHP and neuronal adaptation. Data was collected from at least 20 neurons taken for 6 rats or more in each experimental group.
for after-hyper-polarization (AHP) measurement, neurons were depolarized in current clamp mode to Vm of −60 mV with DC current injection, and 100 ms long depolarizing current steps were applied with intensity sufficient to evoke trains of 6 action potentials. AHP amplitude was measured from baseline to the peak of the hyperpolarizing voltage deflection that follows the spike train (FIGS. 2A1 and 2A2). The AHP value was determined from the averaged amplitude in 4-5 consecutive traces, evoked at intervals of 10 sec. FIGS. 2A1 and 2A2 show the same trace on different time scales. Neurons were held at membrane potential of −60 mV and post-burst AHP was generated by 100 ms depolarizing current step injection via the recording electrode, with intensity sufficient to generate a train of 6 action potentials.
These experiments included a brief, ten minutes long, exposure to kainate. […] This decrease outlasted while kainate was present and was always apparent for the total length to kainate exposure (FIG. 8A).
The post burst AHP in neurons from trained rats was not affected by exposure to kainate. The averaged AHP in kainate induced, trained neurons was 6.63±2.4 (n=7).

GluR6 = type: cell-based, mice; details: 1 sec depolarizing pulse, Ithx2, versus control
Protocol: For neuronal adaptation measurements, prolonged (1 sec) depolarizing current steps are applied to the neurons via the recording electrode at Vrest, with stimulus intensity of twice IThreshold (FIG. 2B). The firing frequency was measured between each of two spikes in the train, and values were normalized to the initial frequency at which the first two spikes are generated. FIG. 2B is a graph depicting an example for neuronal firing adaptation in layer II pyramidal cell.
FIG. 10B is a bar graph depicting the number of spikes following kainate application in GluR6+/+ and GluR6−/− neurons, as opposed to control, (n) depicts the number of neurons.

Row | SMILES | averaged number of training days required for learning completion (GluR6 receptor) | averaged AHP amplitude (kainate receptors; neurons from naive animals, n=16) | averaged AHP amplitude (kainate receptors; neurons from pseudo trained rats, n=7) | effect on post burst AHP (kainate receptors; neurons from trained rats, exposure to kainate) | averaged AHP (kainate receptors; neurons from trained rats, kainate induced, n=7) | number of action potentials (spikes) following kainate application (GluR6; neurons from GluR6 knockout (GluR6-/-) mice) | number of action potentials (spikes) following kainate application (GluR6; neurons of wild type (GluR6+/+) mice)
1 | Cc1onc(O)c1CCC(N)C(=O)O (racemic) [homo-AMPA, (RS)-2-amino-4-(3-hydroxy-5-methylisoxazol-4-yl)butyric acid] | less than five |  |  |  |  |  | 
2 | C=C(C)[C@H]1CN[C@H](C(=O)O)[C@H]1CC(=O)O [kainate, kainic acid] |  | 6.0±2.5 | 6.63 ± 2.4 | not affected | 6.63±2.4 | no effect | doubles
